Test results as given in patent US20070004634A1 (Novo Nordisk A/S, priority 1998, published 2007).
One block for each compound: values may come before it. No end group written: not given here.

Columns and labels:
[1] = tested on: IR; assay: IR activity (agonist/antagonist) of MBP-peptide fusions, Table 10; test not named; settings: MBP-peptide fusion proteins; one symbol per monomer unit
[2] = tested on: MCF-7 cells
[3] = tested on: MiaPaCa cells; settings: MiaPaCa
[4] = target: His-tagged soluble recombinant human IGF-IR (srhIGF-1R-his) (Homo sapiens, UniProt P08069); assay: ALPHAScreen competition, b-hIGF-1 binding to srhIGF-1R-his; settings: read-out: Affin.; AlphaScreen assay versus IGF-1
Chain of His-tagged soluble recombinant human IGF-IR (srhIGF-1R-his) (P08069 31-736 limits assumed): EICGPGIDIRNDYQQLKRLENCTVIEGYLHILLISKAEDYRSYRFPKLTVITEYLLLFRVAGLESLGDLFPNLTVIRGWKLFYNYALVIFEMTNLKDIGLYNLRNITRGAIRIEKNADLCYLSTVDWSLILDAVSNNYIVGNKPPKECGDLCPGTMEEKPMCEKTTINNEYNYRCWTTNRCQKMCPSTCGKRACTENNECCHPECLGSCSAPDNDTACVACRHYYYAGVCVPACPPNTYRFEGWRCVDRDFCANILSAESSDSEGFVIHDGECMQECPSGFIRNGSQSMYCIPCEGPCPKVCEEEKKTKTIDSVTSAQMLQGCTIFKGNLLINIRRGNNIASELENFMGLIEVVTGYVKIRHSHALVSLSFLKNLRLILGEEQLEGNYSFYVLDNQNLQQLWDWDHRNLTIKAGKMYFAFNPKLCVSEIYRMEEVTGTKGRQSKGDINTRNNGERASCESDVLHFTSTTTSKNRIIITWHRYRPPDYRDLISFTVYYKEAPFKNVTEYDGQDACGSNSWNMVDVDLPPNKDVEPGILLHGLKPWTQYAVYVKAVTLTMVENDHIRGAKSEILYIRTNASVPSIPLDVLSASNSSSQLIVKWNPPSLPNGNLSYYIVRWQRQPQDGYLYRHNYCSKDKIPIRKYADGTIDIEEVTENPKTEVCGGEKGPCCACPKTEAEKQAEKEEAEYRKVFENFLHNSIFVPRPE
Chain of His-tagged soluble recombinant human IGF-IR (srhIGF-1R-his) (P08069 741-935 limits assumed): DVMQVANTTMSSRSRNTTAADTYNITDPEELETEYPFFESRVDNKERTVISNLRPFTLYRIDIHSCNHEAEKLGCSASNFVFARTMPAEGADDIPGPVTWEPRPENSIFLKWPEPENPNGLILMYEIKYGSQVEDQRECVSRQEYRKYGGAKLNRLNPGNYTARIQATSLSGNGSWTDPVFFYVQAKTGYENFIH
Protocol: Detection of the receptor ligand interaction was measured in an amplified luminescent proximity homogeneous assay (ALPHAScreen; BioSignal-Packard, Montreal). The assay was performed in 384-well Nunc™white polystyrene microplates (Nalge Nunc International, Naperville, Ill.) with a final volume of 40 μl.
For the first step of the assay, hIGF-1 (PeproTech, Inc., Rocky Hill, N.J.), b-hIGF-1 (see below), and peptides were incubated for 2 h at room temperature. Each concentration of competitor was assayed in duplicate. Non-specific binding was determined in the presence of 3×10^−5 M hIGF-1. In the second step of the assay, acceptor beads were added and the incubation was continued for 0.5 h. In the final step, donor beads were added and the incubation was continued for an additional 1 h.
For these experiments, potencies of peptide competition were determined using the AlphaScreen assay format.

[5] = target: IR (Homo sapiens, UniProt P06213); assay: IR-Kd; design: replacing the transmembrane domain and the intracellular domain of IR with constant domains from immunoglobulin Fc or λ subunits; made in house; host or cells: human embryonic kidney 293 cells (Bass et al.)
Chain of IR (Homo sapiens, UniProt P06213) (P06213 28-758 limits assumed): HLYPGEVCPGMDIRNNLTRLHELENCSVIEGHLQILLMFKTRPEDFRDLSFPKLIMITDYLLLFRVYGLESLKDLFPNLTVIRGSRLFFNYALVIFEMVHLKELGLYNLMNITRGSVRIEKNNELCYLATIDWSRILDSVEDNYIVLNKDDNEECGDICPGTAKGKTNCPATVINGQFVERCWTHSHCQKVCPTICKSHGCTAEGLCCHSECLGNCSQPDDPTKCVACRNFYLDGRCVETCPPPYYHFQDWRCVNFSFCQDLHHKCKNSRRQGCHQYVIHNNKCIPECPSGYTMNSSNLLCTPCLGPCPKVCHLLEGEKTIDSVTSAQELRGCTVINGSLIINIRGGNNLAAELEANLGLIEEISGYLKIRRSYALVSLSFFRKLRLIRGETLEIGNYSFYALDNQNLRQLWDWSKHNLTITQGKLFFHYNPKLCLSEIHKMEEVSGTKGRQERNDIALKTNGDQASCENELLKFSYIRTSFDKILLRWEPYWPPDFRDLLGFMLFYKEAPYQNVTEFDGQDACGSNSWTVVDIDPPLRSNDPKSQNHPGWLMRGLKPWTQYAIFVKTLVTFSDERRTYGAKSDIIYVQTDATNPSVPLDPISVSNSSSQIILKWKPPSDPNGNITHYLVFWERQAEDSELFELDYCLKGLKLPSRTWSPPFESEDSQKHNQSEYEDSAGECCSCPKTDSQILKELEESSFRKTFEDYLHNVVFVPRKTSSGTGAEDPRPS
Chain of IR (Homo sapiens, UniProt P06213) (P06213 763-1382 limits assumed): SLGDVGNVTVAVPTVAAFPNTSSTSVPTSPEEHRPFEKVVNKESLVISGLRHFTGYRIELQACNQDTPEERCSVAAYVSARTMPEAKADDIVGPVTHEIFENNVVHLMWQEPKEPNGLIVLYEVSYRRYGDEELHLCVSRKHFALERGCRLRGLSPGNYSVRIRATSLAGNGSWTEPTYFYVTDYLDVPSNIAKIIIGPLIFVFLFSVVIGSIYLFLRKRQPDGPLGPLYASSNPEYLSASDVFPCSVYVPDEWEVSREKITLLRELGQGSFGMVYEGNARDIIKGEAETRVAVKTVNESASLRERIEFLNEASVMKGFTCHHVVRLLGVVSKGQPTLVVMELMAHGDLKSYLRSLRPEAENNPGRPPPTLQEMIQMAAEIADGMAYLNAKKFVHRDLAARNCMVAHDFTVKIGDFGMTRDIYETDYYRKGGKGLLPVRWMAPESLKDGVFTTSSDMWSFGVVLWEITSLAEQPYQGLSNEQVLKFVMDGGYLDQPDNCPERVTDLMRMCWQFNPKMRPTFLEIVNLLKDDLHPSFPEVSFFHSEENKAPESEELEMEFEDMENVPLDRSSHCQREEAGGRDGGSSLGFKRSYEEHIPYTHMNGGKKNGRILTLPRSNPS
From the text: Table printed on a drawing sheet, FIG. 5B
The patent's description of the figure: FIG. 5A: Summary of specific representative amino acid sequences from Formulas 1, 4, 6, and 10 (SEQ ID NOS:1155-1180).
FIG. 5B: Summary of specific representative amino acid sequences from Formulas 1, 4, 6, and 10 (SEQ ID NOS:1181-1220).
First copying reader's note: The scan is skewed, so values in the right-hand columns sit slightly higher than their clone names, and their rows were assigned by following the ruled lines.
Where the first naming reader finds the target: head: IR-Kd

[6] = target: T1, insulin receptor construct transfected into 32D cells (Homo sapiens, UniProt P06213); assay: IR autophosphorylation assay in IR transfected 32D cells (ELISA); assay type: cell-based; settings: tested as MBP fusion peptides
T1 construct: expressed in transfected cells; host or cells: 32D cells (clone 969)
T1 sequence (P06213 28-758 limits assumed): as the sequence (P06213 28-758 limits assumed) above
T1 sequence (P06213 763-1382 limits assumed): as the sequence (P06213 763-1382 limits assumed) above
Protocol: The IR transfected 32D cells were seeded at […] in 96-well tissue culture plates and incubated overnight at 37° C. […] The culture media was decanted from the cell culture plates, and the diluted samples were added to the cells. The plates were incubated at 37° C. for 30 min. The stimulation medium was decanted from the plates, and cell lysis buffer (50 mM HEPES pH 7.2, 150 mM NaCl, 0.5% Triton X-100, 1 mM AEBSF, 10 KIU/ml aprotinin, 50 μM leupeptin, and 2 mM sodium orthovanadate) was added. The cells were lysed for 30 min.
In the ELISA portion of the assay, the cell lysates were added to the BSA-blocked anti-IR unit mAb (Upstate Biotechnology, Lake Placid, N.Y.) coated ELISA plates. After a 2 h incubation, the plates were washed 6 times with PBST and biotinylated anti-phosphotyrosine antibody (Upstate Biotechnology) is added. After another 2 h incubation, the plates were again washed 6 times. Streptavidin-Eu was then added, and the plates were incubated for 1 h. After washing the plates again, EG&G Wallac enhancement solution (100 mM acetone-potassium hydrogen pthalate, pH 3.2; 15 mM 2-naphtyltrifluoroacetate; 50 mM tri(n-octyl)-phosphine oxide; 0.1% Triton X-100) was added into each well, and the plates were placed onto a shaker for 20 min at RT.

[7] = target: T2, soluble human insulin receptor-immunoglobulin heavy chain chimera (sIR-Fc) (Homo sapiens, UniProt P06213); assay: TR-FRET competition with biotinylated RP9 (b-RP9) for sIR-Fc; assay type: binding; settings: Hill slope; target sIR-Fc; label b-RP9; TR-FRET
T2 construct: replacing the transmembrane domain and the intracellular domain of IR with constant domains from immunoglobulin Fc or λ subunits; made in house; host or cells: human embryonic kidney 293 cells (Bass et al.)
T2 sequence (P06213 28-758 limits assumed, stated change not applied): as the sequence (P06213 28-758 limits assumed) above
T2 sequence (P06213 763-956 limits assumed, stated change not applied): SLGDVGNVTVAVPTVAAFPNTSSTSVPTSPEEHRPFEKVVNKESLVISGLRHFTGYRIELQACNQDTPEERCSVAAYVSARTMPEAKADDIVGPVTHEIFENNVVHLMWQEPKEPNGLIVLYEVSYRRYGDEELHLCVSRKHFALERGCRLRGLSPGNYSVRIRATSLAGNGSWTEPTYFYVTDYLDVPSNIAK

[8] = target: T2, soluble human insulin receptor-immunoglobulin heavy chain chimera (sIR-Fc); assay: TR-FRET competition with biotinylated S175 (b-S175) for sIR-Fc; assay type: binding; settings: Hill slope, target sIR-Fc, label b-S175
Protocol: The TR-FRET assays were performed in a 384-well white microplate with a final volume of 30 μl.
For these figures, each data point represents the average of two replicate wells.

[9] = target: T3, soluble HIR ectodomain (sIR) (Homo sapiens, UniProt P06213); assay: Fluorescence polarization, competition with FITC-RP9 for sIR; assay type: binding; settings: Hill slope, target sIR, label FITC-RP9
T3 construct: soluble HIR ectodomain (sIR); Kristensen et al., 1998
T3 sequence (P06213 28-758 limits assumed): as the sequence (P06213 28-758 limits assumed) above
T3 sequence (P06213 763-956 limits assumed): as the sequence (P06213 763-956 limits assumed, stated change not applied) above

[10] = target: T4, IGF-1R (Homo sapiens, UniProt P08069); assay: TR-FRET dissociation of biotinylated-20E2 from rhIGF-1R; assay type: binding; settings: peptides 100 μM, IGF-1 30 μM
T4 sequence (P08069 31-736 limits assumed): as the sequence (P08069 31-736 limits assumed) above
T4 sequence (P08069 741-935 limits assumed): as the sequence (P08069 741-935 limits assumed) above
Protocol: Best fit non-linear regression analysis of the data, was used to determine dissociation rate constants. Each data point represents a single observation. […] Reactions were allowed to reach equilibrium for 6 h at RT.

[11] = target: T2, soluble human insulin receptor-immunoglobulin heavy chain chimera (sIR-Fc); assay: Fluorescence polarization, competition with FITC-RP9 for sIR-Fc; assay type: binding
Protocol: (§1) For these experiments, each data point represents the average of two replicate wells.
The assays were performed in a 384-well black microplate (NUNC) with a final volume of 30 μl.

[12] = target: T4, IGF-1R; assay: TR-FRET competition with biotinylated-20E2 for rhIGF-1R; settings: TR-FRET (rhIGF-1R, b-20E2) versus FP (sIR-Fc), summary of Table 22
Protocol: as §1
The assays were performed using a 384-well white microplate (NUNC) with a final volume of 30 μl.

[13] = tested on: free fat cells (adipocytes); assay: Adipocyte / free fat cell (FFC) assay, 3H glucose incorporation into lipid; settings: free fat cell assay class, Table 9
Protocol: Incorporation of ^3H into the lipid phase was determined by partitioning of lipid phase into a scintillant mixture, which excludes water-soluble ^3H products.

Compound: 437 (NNNNLGIEGRISEFIEGRAQPAMAFHENFYDWFVRQVSAAAGAPVPYPDPLEPRAA; also: MBP fusion, junction not given here) [Peptide 437]
Act. (activity) [1]: N—N

Compound: CC(C)C[C@@H]1NC(=O)[C@@H](NC(=O)[C@H](CO)NC(=O)[C@H](Cc2ccc(O)cc2)NC(=O)[C@H](Cc2ccccc2)NC(=O)[C@@H](N)CO)CSSC[C@@H](C(=O)N[C@@H](CCCNC(=N)N)C(=O)N[C@@H](CCCCN)C(=O)N[C@@H](CCCCN)C(=O)O)NC(=O)CNC(=O)[C@H](CC(=O)O)NC(=O)[C@H](Cc2c[nH]c3ccccc23)NC(=O)[C@H](CCC(N)=O)NC(=O)CNC(=O)[C@H](CCCNC(=N)N)NC(=O)[C@H](CO)NC(=O)[C@H](CCCCN)NC(=O)[C@H](CCC(=O)O)NC(=O)[C@H](C)NC(=O)[C@@H]2CCCN2C(=O)CNC(=O)[C@H](CC(N)=O)NC(=O)[C@H](C(C)C)NC(=O)[C@H](CC(C)C)NC(=O)[C@H](CO)NC(=O)[C@H](CCC(=O)O)NC1=O [RP33-IGF with KK]
IC50 ([2]; MCF-7): 100 nM
Activ. ([2]; proliferation assays in the presence of IGF-1 using MCF-7 and MiaPaCa cells): Antag.
IC50 [3]: 700 nM
IC50 [4]: 9 nM

Kd [5]: > 20000 nM
Compound: AFYDWFAKK [Peptide S167]

stimulation of autophosphorylation of IR [6]: stimulate autophosphorylation
Hill, sIR-Fc, b-RP9, FRET [7]: −1.03
Hill, sIR-Fc, b-S175, FRET [8]: −0.82
Hill, sIR, FITC-RP9, FP [9]: −0.49
potency / affinity at IR, in words ([11]; FP with FITC-RP9, summary of Table 22): slightly less potent
Hill, sIR-Fc, FITC-RP9, FP ([11]; Hill slope, target sIR-Fc, label FITC-RP9, fluorescence polarization): −0.27
binding to IGF-1R compared with IR, in words [12]: lower binding ratios for IGF-1R over IR
Compound: FHENFYDWFVRQVSKK [Peptide H2C]
effect on the rate of dissociation of b-20E2 from IGF-1R [10]: dissociation rates of b-20E2 were similar
FFC [13]: +
